Source: ChEMBL document CHEMBL1128617, “4-Deoxy-4-aminoavermectins with potent broad spectrum antiparasitic activities” (1995)

Experiments:
Type in all cases: functional
[1] = tested on: Teladorsagia circumcincta; test: Antiparasitic activity against Ostertagia circumcincta at dose of 0.10 mg/kg in sheep anthelmintic test
[2] = tested on: Trichostrongylus colubriformis; test: Antiparasitic activity against Trichostrongylus colubriformis at dose of 0.10 mg/kg in sheep anthelmintic test
Cooperia [3] = test: Antiparasitic activity against Cooperia […] at dose of 0.10 mg/kg in sheep anthelmintic test; conditions: dose 0.1 mg/kg
[4] = tested on: Oesophagostomum columbianum; test: Antiparasitic activity against Oesophagostomum columbianum at dose of 0.10 mg/kg in sheep anthelmintic test
Cooperia oncophora [5] = test: Antiparasitic activity against Cooperia oncophora at dose of 0.10 mg/kg in sheep anthelmintic test
Haemonchus contortus [6] = test: Antiparasitic activity against Haemonchus contortus at dose of 0.10 mg/kg in sheep anthelmintic test
Artemia = test: In vitro antiparasitic activity in brine shrimp assay
Trichostrongylus axei [7] = test: Antiparasitic activity against Trichostrongylus axei at dose of 0.10 mg/kg in sheep anthelmintic test
Ovis aries [8] = test: Antiparasitic activity against Cooperia […] at dose of 0.04 mg/kg in sheep anthelmintic test
Ovis aries [9] = test: Antiparasitic activity against Trichostrongylus colubriformis at dose of 0.04 mg/kg in sheep anthelmintic test
Ovis aries [10] = test: Antiparasitic activity against Ostertagia circumcincta at dose of 0.04 mg/kg in sheep anthelmintic test
Ovis aries [11] = test: Antiparasitic activity against Trichostrongylus axei at dose of 0.04 mg/kg in sheep anthelmintic test
Ovis aries [12] = test: Antiparasitic activity against Oesophagostomum columbianum at dose of 0.04 mg/kg in sheep anthelmintic test
Ovis aries [13] = test: Antiparasitic activity against Haemonchus contortus at dose of 0.04 mg/kg in sheep anthelmintic test
Ovis aries [14] = test: Antiparasitic activity against Trichostrongylus colubriformis at dose of 0.20 mg/kg in sheep anthelmintic test; conditions: dose 0.2 mg/kg
Ovis aries [15] = test: Antiparasitic activity against Haemonchus contortus at dose of 0.20 mg/kg in sheep anthelmintic test; conditions: dose 0.2 mg/kg
Ovis aries [16] = test: Antiparasitic activity against Cooperia […] at dose of 0.20 mg/kg in sheep anthelmintic test; conditions: dose 0.2 mg/kg
Ovis aries [17] = test: Antiparasitic activity against Trichostrongylus axei at dose of 0.20 mg/kg in sheep anthelmintic test; conditions: dose 0.2 mg/kg
Ovis aries [18] = test: Antiparasitic activity against Cooperia oncophora at dose of 0.20 mg/kg in sheep anthelmintic test; conditions: dose 0.2 mg/kg
Ovis aries [19] = test: Antiparasitic activity against Oesophagostomum columbianum at dose of 0.20 mg/kg in sheep anthelmintic test; conditions: dose 0.2 mg/kg
Ovis aries [20] = test: Antiparasitic activity against Ostertagia circumcincta at dose of 0.20 mg/kg in sheep anthelmintic test; conditions: dose 0.2 mg/kg
Cooperia [21] = test: (§1) Antiparasitic activity against Cooperia […] at dose of 0.05 mg/kg in sheep anthelmintic test
Cooperia oncophora [22] = test: (§2) Antiparasitic activity against Cooperia oncophora at dose of 0.05 mg/kg in sheep anthelmintic test
Trichostrongylus axei [23] = test: (§3) Antiparasitic activity against Trichostrongylus axei at dose of 0.05 mg/kg in sheep anthelmintic test
[24] = tested on: Trichostrongylus colubriformis; test: (§4) Antiparasitic activity against Trichostrongylus colubriformis at dose of 0.05 mg/kg in sheep anthelmintic test
[25] = tested on: Teladorsagia circumcincta; test: (§5) Antiparasitic activity against Ostertagia circumcincta at dose of 0.05 mg/kg in sheep anthelmintic test
[26] = tested on: Oesophagostomum columbianum; test: (§6) Antiparasitic activity against Oesophagostomum columbianum at dose of 0.05 mg/kg in sheep anthelmintic test
Haemonchus contortus [27] = test: (§7) Antiparasitic activity against Haemonchus contortus at dose of 0.05 mg/kg in sheep anthelmintic test
Ovis aries [28] = test: as §1
Ovis aries [29] = test: as §2
Ovis aries [30] = test: as §3
Ovis aries [31] = test: as §4
Ovis aries [32] = test: as §5
Ovis aries [33] = test: as §6
Ovis aries [34] = test: as §7

Compound: CCC(C)[C@H]1O[C@]2(CC(O)[C@@H]1C)C[C@@H]1C[C@@H](C/C=C(\C)[C@@H](O[C@H]3C[C@H](OC)[C@@H](O[C@H]4C[C@H](OC)[C@H](NC(C)=O)[C@H](C)O4)[C@H](C)O3)[C@@H](C)/C=C/C=C3\CO[C@@H]4[C@H](O)C(C)=C[C@@H](C(=O)O1)[C@]34O)O2 (some centres undefined)
- Reduction ([1]; dose 0.1 mg/kg): >95%
- Reduction ([2]; dose 0.1 mg/kg): >95%
- Reduction (Cooperia [3]): 76%
- Reduction ([4]; dose 0.1 mg/kg): >95%
- Reduction (Cooperia oncophora [5]; dose 0.1 mg/kg): >95%
- Reduction (Haemonchus contortus [6]; dose 0.1 mg/kg): <50%
- IC100 (Artemia): 870 ng/mL
- Reduction (Trichostrongylus axei [7]; dose 0.1 mg/kg): >95%

Compound: CCC(C)[C@H]1O[C@]2(C=C[C@@H]1C)C[C@@H]1C[C@@H](C/C=C(\C)[C@@H](O[C@H]3C[C@H](OC)[C@@H](O[C@H]4C[C@H](OC)[C@H](N(C)C)[C@H](C)O4)[C@H](C)O3)[C@@H](C)/C=C/C=C3\CO[C@@H]4[C@H](O)C(C)=C[C@@H](C(=O)O1)[C@]34O)O2 (some centres undefined)
- Reduction (Ovis aries [8]): 51%
- Reduction (Ovis aries [9]): 51%
- Reduction (Ovis aries [10]): >95%
- Reduction (Ovis aries [11]): <50%
- Reduction (Ovis aries [12]): >95%
- IC100 (Artemia): 1300 ng/mL
- Reduction (Ovis aries [13]): >95%

Compound: CCC(C)[C@H]1O[C@]2(C=C[C@@H]1C)C[C@@H]1C[C@@H](C/C=C(\C)[C@@H](O[C@H]3C[C@H](OC)[C@@H](O[C@H]4C[C@H](OC)[C@H](NCc5ccccc5)[C@H](C)O4)[C@H](C)O3)[C@@H](C)/C=C/C=C3\CO[C@@H]4[C@H](O)C(C)=C[C@@H](C(=O)O1)[C@]34O)O2 (some centres undefined)
- Reduction (Ovis aries [14]): >95%
- Reduction (Ovis aries [15]): >95%
- Reduction (Ovis aries [16]): >95%
- Reduction (Ovis aries [17]): <50%
- IC100 (Artemia): >55500 ng/mL
- Reduction (Ovis aries [18]): >95%
- Reduction (Ovis aries [19]): >95%
- Reduction (Ovis aries [20]): >95%

Compound: CCC(=O)N[C@@H]1[C@H](C)O[C@@H](O[C@H]2[C@H](C)O[C@@H](O[C@@H]3/C(C)=C/C[C@@H]4C[C@@H](C[C@]5(C=C[C@H](C)[C@@H](C(C)CC)O5)O4)OC(=O)[C@@H]4C=C(C)[C@@H](O)[C@H]5OC/C(=C\C=C\[C@@H]3C)[C@]54O)C[C@@H]2OC)C[C@@H]1OC (some centres undefined)
- Reduction (Cooperia [21]): >95%
- Reduction (Cooperia oncophora [22]): >95%
- Reduction (Trichostrongylus axei [23]): >95%
- Reduction [24]: >95%
- Reduction [25]: >95%
- Reduction [26]: >95%
- IC100 (Artemia): 430 ng/mL
- Reduction (Haemonchus contortus [27]): >95%

Compound: CCC(C)[C@H]1O[C@]2(C=C[C@@H]1C)C[C@@H]1C[C@@H](C/C=C(\C)[C@@H](O[C@H]3C[C@H](OC)[C@@H](O[C@H]4C[C@H](OC)[C@H](NC(C)C)[C@H](C)O4)[C@H](C)O3)[C@@H](C)/C=C/C=C3\CO[C@@H]4[C@H](O)C(C)=C[C@@H](C(=O)O1)[C@]34O)O2 (some centres undefined)
- Reduction (Ovis aries [28]): 51%
- Reduction (Ovis aries [29]): 51%
- Reduction (Ovis aries [30]): <50%
- Reduction (Ovis aries [31]): 51%
- Reduction (Ovis aries [32]): <50%
- Reduction (Ovis aries [33]): >95%
- IC100 (Artemia): 1730 ng/mL
- Reduction (Ovis aries [34]): 76%

Compound: IVERMECTIN
- Reduction [1]: > 95%
- Reduction [2]: > 95%
- Reduction [4]: > 95%
- Reduction (Cooperia oncophora [5]): > 95%
- Reduction (Haemonchus contortus [6]): > 95%
- IC100 (Artemia): 430 ng/mL
- Reduction (Trichostrongylus axei [7]): > 95%

Compound: CCC(C)[C@H]1O[C@]2(C=C[C@@H]1C)C[C@@H]1C[C@@H](C/C=C(\C)[C@@H](O[C@H]3C[C@H](OC)[C@@H](O[C@H]4C[C@H](OC)[C@@H](NC(C)=O)[C@H](C)O4)[C@H](C)O3)[C@@H](C)/C=C/C=C3\CO[C@@H]4[C@H](O)C(C)=C[C@@H](C(=O)O1)[C@]34O)O2 (some centres undefined)
- Reduction (Cooperia [21]): 76%
- Reduction (Cooperia oncophora [22]): >95%
- Reduction (Trichostrongylus axei [23]): >95%
- Reduction [24]: <50%
- Reduction [25]: <50%
- Reduction [26]: >95%
- IC100 (Artemia): 325 ng/mL
- Reduction (Haemonchus contortus [27]): >95%
